Laboratory results as given in patent US8299267B2, “(3-hydroxy-4-amino-butan-2-yl) -3- (2-thiazol-2-yl-pyrrolidine-1-carbonyl) benzamide derivatives and related compounds as beta-secretase inhibitors for treating” (CoMentis, Inc., priority 2007, dated 2012).

target: memapsin 2 (Homo sapiens, UniProt P56817); assay: Inhibition of memapsin 2 beta-secretase activity toward fluorogenic substrate FS-2; assay type: biochemical; settings: memapsin 2, pH 4, 37° C., 20 minutes pre-incubation, substrate FS-2; read-out: M2Ki
Description: Potency of compounds were determined by measurement of their inhibition of memapsin 2 activity toward a fluorescent substrate. Kinetic inhibition experiments were performed using the procedure as described in Ermolieff, et al. (Biochemistry 39:12450-12456 (2000), the teachings of which are incorporated hereby in their entirety). Briefly, assays were performed at pH 4, 37° C., by pre-incubation of memapsin 2 enzyme with compound for 20 minutes. Activity measurements were initiated by addition of a fluorogenic substrate FS-2 (Bachem Americas, Torrance, Calif.) MCA-SEVNLDAEFK-DNP (SEQ ID NO.: 2). The substrate was derived from 10 amino acids of the human amyloid precursor protein (APP), with the Swedish variant amino acids at the beta-secretase cleavage site. The terminal amino acid was modified from arginine to lysine to facilitate derivatization with a functional group for detection by autofluorescence. The amino acid sequence of the “core” peptide of the substrate is SEVNLDAEFK (SEQ ID NO.: 3). The amino terminus was derivatized with (7-methoxycoumarin-4-yl)acetyl (MCA), and the epsilon amine of the lysine side chain of the terminal residue (K in sequence SEVNLDAEFK (SEQ ID NO.: 4)) was derivatized with 2,4-dinitrophenyl (DNP).

memapsin 2, sequence (P56817 46-501): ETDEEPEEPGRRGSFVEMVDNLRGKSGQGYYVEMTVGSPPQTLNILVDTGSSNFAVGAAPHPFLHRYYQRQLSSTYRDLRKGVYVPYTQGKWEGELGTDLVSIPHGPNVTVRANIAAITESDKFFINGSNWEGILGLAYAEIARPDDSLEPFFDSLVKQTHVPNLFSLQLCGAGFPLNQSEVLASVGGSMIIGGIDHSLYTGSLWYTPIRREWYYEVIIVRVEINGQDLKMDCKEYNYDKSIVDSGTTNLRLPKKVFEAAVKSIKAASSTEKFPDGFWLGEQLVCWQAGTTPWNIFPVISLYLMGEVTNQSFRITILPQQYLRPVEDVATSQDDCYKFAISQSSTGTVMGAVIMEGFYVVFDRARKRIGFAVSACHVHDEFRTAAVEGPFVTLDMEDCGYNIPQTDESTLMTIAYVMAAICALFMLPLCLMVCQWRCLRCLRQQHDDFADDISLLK

| Structure (SMILES) | Ki |
| --- | --- |
| COc1cccc(CNC[C@@H](O)[C@H](Cc2ccccc2)NC(=O)c2cccc(C(=O)N3CS(=O)(=O)C[C@@H]3c3nc(C)cs3)c2)c1 [Compound 13, N-((2S,3R)-3-hydroxy-4-(3-methoxybenzylamino)-1-phenylbutan-2-yl)-3-((R)-4-(4-methylthiazol-2-yl)thiazolidine-S-dioxide-3-carbonyl)benzamide] | > 0.201 µM |
| Cc1csc([C@H]2CCCN2C(=O)c2cccc(C(=O)N[C@@H](Cc3ccccc3)[C@H](O)CNCc3cc(C(C)C)no3)c2)n1 [Compound 99, N-((2S,3R)-3-hydroxy-4-((3-isopropylisoxazol-5-yl)methylamino)-1-phenylbutan-2-yl)-3-((R)-2-(4-methylthiazol-2-yl)pyrrolidine-1-carbonyl)benzamide] | < 0.1 µM |
| COc1cccc([C@H](C)NC[C@@H](O)[C@H](Cc2ccccc2)NC(=O)c2cc(C(=O)N3CCC[C@@H]3c3nc(C)cs3)cc(N(C)C)c2)c1 [Compound 53, 3-(dimethylamino)-N-((2S,3R)-3-hydroxy-4-((S)-1-(3-methoxyphenyl)ethylamino)-1-phenylbutan-2-yl)-5-((R)-2-(4-methylthiazol-2-yl)pyrrolidine-1-carbonyl)benzamide] | 0.101 to 0.2 µM |
| Cc1csc([C@H]2CCCN2C(=O)c2cc(C(=O)N[C@@H](Cc3ccccc3)[C@H](O)CNCc3cccc(C(F)(F)F)c3)nc(N(C)C)n2)n1 [Compound 100, 2-(dimethylamino)-N-((2S,3R)-3-hydroxy-1-phenyl-4-(3-(trifluoromethyl)benzylamino)butan-2-yl)-6-((R)-2-(4-methylthiazol-2-yl)pyrrolidine-1-carbonyl)pyrimidine-4-carboxamide] | < 0.1 µM |
| Cc1csc([C@H]2CCCN2C(=O)c2cc(C(=O)N[C@@H](Cc3ccccc3)[C@H](O)CNCc3cncc(C(C)(C)F)c3)cc(C(F)F)c2)n1 [Compound 58, 3-(difluoromethyl)-N-((2S,3R)-4-((5-(2-fluoropropan-2-yl)pyridin-3-yl)methylamino)-3-hydroxy-1-phenylbutan-2-yl)-5-((R)-2-(4-methylthiazol-2-yl)pyrrolidine-1-carbonyl)benzamide] | < 0.1 µM |
| COc1cccc(CNC[C@@H](O)[C@H](Cc2ccccc2)NC(=O)c2cccc(C(=O)N3C[C@H](OC)C[C@@H]3c3nc(C)cs3)c2)c1 [Compound 7, N-((2S,3R)-3-hydroxy-4-(3-methoxybenzylamino)-1-phenylbutan-2-yl)-3-((2R,4R)-4-methoxy-2-(4-methylthiazol-2-yl)pyrrolidine-1-carbonyl)benzamide] | > 0.201 µM |
| Cc1csc([C@H]2CCCN2C(=O)c2cccc(C(=O)N[C@@H](Cc3ccccc3)[C@H](O)CNC3CC3)c2)n1 [Compound 19, N-((2S,3R)-4-(cyclopropylamino)-3-hydroxy-1-phenylbutan-2-yl)-3-((R)-2-(4-methylthiazol-2-yl)pyrrolidine-1-carbonyl)benzamide] | > 0.201 µM |
| Cc1csc([C@H]2CCCN2C(=O)c2cccc(C(=O)N[C@@H](Cc3ccccc3)[C@H](O)CNCc3cc(C(C)C)on3)c2)n1 [Compound 106, N-((2S,3R)-3-hydroxy-4-((5-isopropylisoxazol-3-yl)methylamino)-1-phenylbutan-2-yl)-3-((R)-2-(4-methylthiazol-2-yl)pyrrolidine-1-carbonyl)benzamide] | < 0.1 µM |
| Cc1cc(C(=O)N2CCC[C@@H]2c2nc(C)co2)cc(C(=O)N[C@@H](Cc2ccccc2)[C@H](O)CNCc2cccc(C(F)(F)F)c2)n1 [Compound 96, N-((2S,3R)-3-hydroxy-1-phenyl-4-(3-(trifluoromethyl)benzylamino)butan-2-yl)-6-methyl-4-((R)-2-(4-methyloxazol-2-yl)pyrrolidine-1-carbonyl)picolinamide] | < 0.1 µM |
| Cc1csc([C@H]2CCCN2C(=O)c2cc(C(=O)N[C@@H](Cc3ccccc3)[C@H](O)CNCc3cncc(C(C)(C)F)c3)cc(N(C)C)c2)n1 [Compound 36, 3-(dimethylamino)-N-((2S,3R)-4-((5-(2-fluoropropan-2-yl)pyridin-3-yl)methylamino)-3-hydroxy-1-phenylbutan-2-yl)-5-((R)-2-(4-methylthiazol-2-yl)pyrrolidine-1-carbonyl)benzamide] | < 0.1 µM |
| COc1cccc([C@H](C)NC[C@@H](O)[C@H](Cc2ccccc2)NC(=O)c2cc(C(=O)N3CCC[C@@H]3c3nc(C)cs3)cc(C(F)F)c2)c1 [Compound 63, 3-(difluoromethyl)-N-((2S,3R)-3-hydroxy-4-((S)-1-(3-methoxyphenyl)ethylamino)-1-phenylbutan-2-yl)-5-((R)-2-(4-methylthiazol-2-yl)pyrrolidine-1-carbonyl)benzamide] | < 0.1 µM |
| Cc1cc(C(=O)N[C@@H](Cc2ccccc2)[C@H](O)CNCc2cc3ccccc3o2)cc(C(=O)N2CCC[C@@H]2c2nc(C)cs2)c1 [Compound 97, N-((2S,3R)-4-(benzofuran-2-ylmethylamino)-3-hydroxy-1-phenylbutan-2-yl)-3-methyl-5-((R)-2-(4-methylthiazol-2-yl)pyrrolidine-1-carbonyl)benzamide] | > 0.201 µM |
| Cc1csc([C@H]2CCCN2C(=O)c2cncc(C(=O)N[C@@H](Cc3ccccc3)[C@H](O)CNCc3cc(C#N)cc(C(C)C)c3)c2)n1 [Compound 61, N-((2S,3R)-4-(3-cyano-5-isopropylbenzylamino)-3-hydroxy-1-phenylbutan-2-yl)-5-((R)-2-(4-methylthiazol-2-yl)pyrrolidine-1-carbonyl)nicotinamide] | < 0.1 µM |
| Cc1csc(CNC[C@@H](O)[C@H](Cc2ccccc2)NC(=O)c2cccc(C(=O)N3CCC[C@@H]3c3nc(C)cs3)c2)n1 [Compound 67, N-((2S,3R)-3-hydroxy-4-((4-methylthiazol-2-yl)methylamino)-1-phenylbutan-2-yl)-3-((R)-2-(4-methylthiazol-2-yl)pyrrolidine-1-carbonyl)benzamide] | > 0.201 µM |
| COc1cccc(CNC[C@@H](O)[C@H](Cc2ccccc2)NC(=O)c2cccc(C(=O)N3CCC[C@H]3c3nc(C)cs3)c2)c1 [Compound 4, N-((2S,3R)-3-hydroxy-4-(3-methoxybenzylamino)-1-phenylbutan-2-yl)-3-((S)-2-(4-methylthiazol-2-yl)pyrrolidine-1-carbonyl)benzamide] | > 0.201 µM |

Other lines, results leading:

| Ki | Structure (SMILES) |
| --- | --- |
| < 0.1 µM | Cc1cc(C(=O)N[C@@H](Cc2ccccc2)[C@H](O)CNCc2cncc(C(C)(C)C)c2)cc(C(=O)N2CCC[C@@H]2c2nc(C)co2)c1 [Compound 112, N-((2S,3R)-4-((5-tert-butylpyridin-3-yl)methylamino)-3-hydroxy-1-phenylbutan-2-yl)-3-methyl-5-((R)-2-(4-methyloxazol-2-yl)pyrrolidine-1-carbonyl)benzamide] |
| < 0.1 µM | Cc1coc([C@H]2CCCN2C(=O)c2cccc(C(=O)N[C@@H](Cc3ccccc3)[C@H](O)CNCc3cccc(OC(F)(F)F)c3)c2)n1 [Compound 114, N-((2S,3R)-3-hydroxy-1-phenyl-4-(3-(trifluoromethoxy)benzylamino)butan-2-yl)-3-((R)-2-(4-methyloxazol-2-yl)pyrrolidine-1-carbonyl)benzamide] |
| 0.101 to 0.2 µM | CCn1cc(CNC[C@@H](O)[C@H](Cc2ccccc2)NC(=O)c2cccc(C(=O)N3CCC[C@@H]3c3nc(C)co3)c2)cn1 [Compound 109, N-((2S,3R)-4-((1-ethyl-1H-pyrazol-4-yl)methylamino)-3-hydroxy-1-phenylbutan-2-yl)-3-((R)-2-(4-methyloxazol-2-yl)pyrrolidine-1-carbonyl)benzamide] |
| < 0.1 µM | Cc1cc(C(=O)N[C@@H](Cc2ccccc2)[C@H](O)CNCc2cccc(OC(F)(F)F)c2)cc(C(=O)N2CCC[C@@H]2c2nc(C)co2)c1 [Compound 115, N-((2S,3R)-3-hydroxy-1-phenyl-4-(3-(trifluoromethoxy)benzylamino)butan-2-yl)-3-methyl-5-((R)-2-(4-methyloxazol-2-yl)pyrrolidine-1-carbonyl)benzamide] |
| > 0.201 µM | Cc1coc([C@H]2CCCN2C(=O)c2cccc(C(=O)N[C@@H](Cc3ccccc3)[C@H](O)CNC3CCCCC3)c2)n1 [Compound 107, N-((2S,3R)-4-(cyclohexylamino)-3-hydroxy-1-phenylbutan-2-yl)-3-((R)-2-(4-methyloxazol-2-yl)pyrrolidine-1-carbonyl)benzamide] |
| < 0.1 µM | C=C(C)c1cccc(CNC[C@@H](O)[C@H](Cc2ccccc2)NC(=O)c2cc(C)cc(C(=O)N3CCC[C@@H]3c3nc(C)co3)c2)c1 [Compound 108, N-((2S,3R)-3-hydroxy-1-phenyl-4-(3-(prop-1-en-2-yl)benzylamino)butan-2-yl)-3-methyl-5-((R)-2-(4-methyloxazol-2-yl)pyrrolidine-1-carbonyl)benzamide] |
| < 0.1 µM | CCn1cc(CNC[C@@H](O)[C@H](Cc2ccccc2)NC(=O)c2cc(C)cc(C(=O)N3CCC[C@@H]3c3nc(C)co3)c2)cn1 [Compound 110, N-((2S,3R)-4-((1-ethyl-1H-pyrazol-4-yl)methylamino)-3-hydroxy-1-phenylbutan-2-yl)-3-methyl-5-((R)-2-(4-methyloxazol-2-yl)pyrrolidine-1-carbonyl)benzamide] |
| < 0.1 µM | Cc1cc(C(=O)N[C@@H](Cc2ccccc2)[C@H](O)CNCc2cncc(C(C)(F)F)c2)cc(C(=O)N2CCC[C@@H]2c2nc(C)cs2)c1 [Compound 116, N-((2S,3R)-4-((5-(1,1-difluoroethyl)pyridin-3-yl)methylamino)-3-hydroxy-1-phenylbutan-2-yl)-3-methyl-5-((R)-2-(4-methylthiazol-2-yl)pyrrolidine-1-carbonyl)benzamide] |
